The values that follow come from patent US20250353891A1 (MEDIMMUNE LIMITED, priority 2022, published 2025).

The target of assay [1] is human glucagon receptor (hGCGR) (Homo sapiens, UniProt P47871). In words: cAMP production (HTRF) in CHO cells expressing hGCGR. The class given is cell-based. On the set-up: expressed in transfected cells. The following applies: Table 6, peptides modified at position 17; cAMP in CHO hGCGR cells; geometric mean; read-out: hGluc-R EC50. In short, it runs like this:
(§1)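 Read-out: HTRF cAMP (anti-cAMP cryptate donor, cAMP-d2 acceptor in conjugate/lysis buffer), converted to % Delta F and fitted by 4-parameter logistic for EC50. Cell densities were 1×10^5 cells/mL (hGLP-1R) or 2×10^5 cells/mL (hGCGR). Stimulation lasted 30 min at room temperature.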

The target of assay [2] is human GLP-1 receptor (hGLP-1R) (Homo sapiens, UniProt P43220). In words: cAMP production (HTRF) in CHO cells expressing hGLP-1R. The class given is cell-based. On the set-up: expressed in transfected cells. Particulars: for EC50: Table 6, peptides modified at position 17, cAMP in CHO hGLP-1R cells, geometric mean, read-out: hGLP-1R EC50; for % Relative Potency Ratio: Table 6, % GLP-1R activity relative to GLP-1 / % GlucR activity relative to glucagon. In short, it runs like this:
as §1

Starred links: 1 amine or outer side, 2 acyl side, 3 side chain; linkers in the order of their positions; H or OH if unused. Non-standard residues stand in square brackets, D forms with d. Residues, ends and D or L forms follow the SMILES beside them. Groups on a side chain read outwards from the residue. *: point of attachment. C20 diacid = O=C(O)CCCCCCCCCCCCCCCCCCC(=O)*; C18 diacid = O=C(O)CCCCCCCCCCCCCCCCC(=O)*; γGlu = O=C(O)[C@H](CCC(=O)[*:2])N[*:1]; αMeF = C[C@](N)(Cc1ccccc1)C(=O)O; AEEA = NCCOCCOCC(=O)O; Aib = CC(C)(N)C(=O)O

Chain of human GLP-1 receptor (hGLP-1R) (P43220 24-463): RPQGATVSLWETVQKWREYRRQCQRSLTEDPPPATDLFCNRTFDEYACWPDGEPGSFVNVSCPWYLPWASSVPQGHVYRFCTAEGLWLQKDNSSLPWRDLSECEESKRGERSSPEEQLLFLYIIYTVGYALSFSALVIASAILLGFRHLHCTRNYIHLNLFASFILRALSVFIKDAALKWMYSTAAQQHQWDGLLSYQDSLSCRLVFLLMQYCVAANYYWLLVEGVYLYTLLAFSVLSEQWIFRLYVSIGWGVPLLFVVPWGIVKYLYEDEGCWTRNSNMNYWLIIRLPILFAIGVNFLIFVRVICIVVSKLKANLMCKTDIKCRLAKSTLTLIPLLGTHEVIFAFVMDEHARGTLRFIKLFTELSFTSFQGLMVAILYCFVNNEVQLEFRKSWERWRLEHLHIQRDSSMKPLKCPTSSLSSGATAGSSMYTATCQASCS
Chain of human glucagon receptor (hGCGR) (P47871 26-477): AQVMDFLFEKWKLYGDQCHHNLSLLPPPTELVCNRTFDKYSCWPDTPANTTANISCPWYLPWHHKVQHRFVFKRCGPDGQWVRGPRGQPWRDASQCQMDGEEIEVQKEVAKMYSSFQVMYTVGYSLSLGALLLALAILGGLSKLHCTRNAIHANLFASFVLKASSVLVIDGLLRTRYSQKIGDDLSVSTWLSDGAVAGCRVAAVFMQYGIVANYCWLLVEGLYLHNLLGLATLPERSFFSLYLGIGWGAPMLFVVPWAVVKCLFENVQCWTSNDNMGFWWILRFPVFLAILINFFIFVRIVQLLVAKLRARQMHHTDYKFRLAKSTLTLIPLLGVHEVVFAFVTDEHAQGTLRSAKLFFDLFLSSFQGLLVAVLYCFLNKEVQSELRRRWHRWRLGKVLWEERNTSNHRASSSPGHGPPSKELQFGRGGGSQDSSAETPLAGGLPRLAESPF

As for `CC(C)C[C@H](NC(=O)[C@H](Cc1c[nH]c2ccccc12)NC(=O)[C@H](CCCNC(=N)N)NC(=O)[C@@H](NC(=O)[C@H](Cc1ccccc1)NC(=O)[C@H](CC(=O)O)NC(=O)[C@H](CCC(N)=O)NC(=O)[C@H](C)NC(=O)[C@H](CCCNC(=N)N)NC(=O)[C@H](CCCCNC(=O)COCCOCCNC(=O)COCCOCCNC(=O)CC[C@H](NC(=O)CCCCCCCCCCCCCCCCC(=O)O)C(=O)O)NC(=O)[C@@H](NC(=O)[C@H](CC(=O)O)NC(=O)[C@H](CC(C)C)NC(=O)[C@](C)(Cc1ccccc1)NC(=O)[C@H](CCCCN)NC(=O)[C@H](CO)NC(=O)[C@@H](NC(=O)[C@H](CC(=O)O)NC(=O)[C@H](CO)NC(=O)[C@@H](NC(=O)[C@H](Cc1ccccc1)NC(=O)[C@@H](NC(=O)CNC(=O)[C@H](CCC(N)=O)NC(=O)C(C)(C)NC(=O)[C@@H](N)Cc1c[nH]cn1)[C@@H](C)O)[C@@H](C)O)C(C)C)[C@@H](C)O)C(C)C)C(=O)N[C@@H](CC(C)C)C(=O)N[C@@H](CCCNC(=N)N)C(=O)NC(C)(C)C(=O)N[C@@H](CCCCN)C(=O)O` [Peptide 493] (H-H[Aib]QGTFTSDVSK[αMeF]LDTK([AEEA-AEEA-γGlu-C18 diacid])RAQDFVRWLLR[Aib]K-OH; N-terminus assumed), the 50% effective concentration (EC50) in assay [1] was found to be 0.166 nM. In assay [2], the EC50 was determined as 0.0235 nM and the “% Relative Potency Ratio” value was 14.0.
For `CC(C)C[C@H](NC(=O)[C@H](Cc1c[nH]c2ccccc12)NC(=O)[C@H](CCCNC(=N)N)NC(=O)[C@@H](NC(=O)[C@H](Cc1ccccc1)NC(=O)[C@H](CC(=O)O)NC(=O)[C@H](CCC(N)=O)NC(=O)[C@H](C)NC(=O)[C@H](CCCNC(=N)N)NC(=O)[C@H](CCCCNC(=O)COCCOCCNC(=O)COCCOCCNC(=O)CC[C@H](NC(=O)CCCCCCCCCCCCCCCCCCC(=O)O)C(=O)O)NC(=O)[C@@H](NC(=O)[C@H](CC(=O)O)NC(=O)[C@H](CC(C)C)NC(=O)[C@](C)(Cc1ccccc1)NC(=O)[C@H](CCCCN)NC(=O)[C@H](CO)NC(=O)[C@@H](NC(=O)[C@H](CC(=O)O)NC(=O)[C@H](CO)NC(=O)[C@@H](NC(=O)[C@H](Cc1ccccc1)NC(=O)[C@@H](NC(=O)CNC(=O)[C@H](CCC(N)=O)NC(=O)C(C)(C)NC(=O)[C@@H](N)Cc1c[nH]cn1)[C@@H](C)O)[C@@H](C)O)C(C)C)[C@@H](C)O)C(C)C)C(=O)N[C@@H](CC(C)C)C(=O)N[C@@H](CCCNC(=N)N)C(=O)NC(C)(C)C(=O)N[C@@H](CCCCN)C(=O)O` [Peptide 494] the same measures were 0.212 nM, 0.0987 nM and 4.3.
`CC(C)C[C@H](NC(=O)[C@H](Cc1c[nH]c2ccccc12)NC(=O)[C@H](CCCNC(=N)N)NC(=O)[C@@H](NC(=O)[C@H](Cc1ccccc1)NC(=O)[C@H](CC(=O)O)NC(=O)[C@H](CCC(N)=O)NC(=O)[C@H](C)NC(=O)[C@H](CCCNC(=N)N)NC(=O)[C@H](CCCCNC(=O)COCCOCCNC(=O)COCCOCCNC(=O)CC[C@H](NC(=O)CCCCCCCCCCCCCCCCC(=O)O)C(=O)O)NC(=O)[C@@H](NC(=O)[C@H](CC(=O)O)NC(=O)[C@H](CC(C)C)NC(=O)[C@](C)(Cc1ccccc1)NC(=O)[C@H](CCCCN)NC(=O)[C@H](CO)NC(=O)[C@@H](NC(=O)[C@H](CC(=O)O)NC(=O)[C@H](CO)NC(=O)[C@@H](NC(=O)[C@H](Cc1ccccc1)NC(=O)[C@@H](NC(=O)CNC(=O)[C@H](CCC(N)=O)NC(=O)C(C)(C)NC(=O)[C@@H](N)Cc1c[nH]cn1)[C@@H](C)O)[C@@H](C)O)C(C)C)[C@@H](C)O)C(C)C)C(=O)N[C@@H](CC(C)C)C(=O)N[C@@H](CCCNC(=N)N)C(=O)NC(C)(C)C(=O)N[C@@H](CCCCN)C(N)=O` [Peptide 495] (H-H[Aib]QGTFTSDVSK[αMeF]LDTK([AEEA-AEEA-γGlu-C18 diacid])RAQDFVRWLLR[Aib]K-NH2; N-terminus assumed): the 50% effective concentration (EC50) in assay [1] was found to be 0.38 nM. In addition, in assay [2], the EC50 was determined as 0.0232 nM and the “% Relative Potency Ratio” value worked out at 32.4.
On to `CC(C)C[C@H](NC(=O)[C@H](Cc1c[nH]c2ccccc12)NC(=O)[C@H](CCCNC(=N)N)NC(=O)[C@@H](NC(=O)[C@H](Cc1ccccc1)NC(=O)[C@H](CC(=O)O)NC(=O)[C@H](CCC(N)=O)NC(=O)[C@H](C)NC(=O)[C@H](CCCNC(=N)N)NC(=O)[C@H](CCCCNC(=O)COCCOCCNC(=O)COCCOCCNC(=O)CC[C@H](NC(=O)CCCCCCCCCCCCCCCCCCC(=O)O)C(=O)O)NC(=O)[C@@H](NC(=O)[C@H](CC(=O)O)NC(=O)[C@H](CC(C)C)NC(=O)[C@](C)(Cc1ccccc1)NC(=O)[C@H](CCCCN)NC(=O)[C@H](CO)NC(=O)[C@@H](NC(=O)[C@H](CC(=O)O)NC(=O)[C@H](CO)NC(=O)[C@@H](NC(=O)[C@H](Cc1ccccc1)NC(=O)[C@@H](NC(=O)CNC(=O)[C@H](CCC(N)=O)NC(=O)C(C)(C)NC(=O)[C@@H](N)Cc1c[nH]cn1)[C@@H](C)O)[C@@H](C)O)C(C)C)[C@@H](C)O)C(C)C)C(=O)N[C@@H](CC(C)C)C(=O)N[C@@H](CCCNC(=N)N)C(=O)NC(C)(C)C(=O)N[C@@H](CCCCN)C(N)=O` [Peptide 496] (H-H[Aib]QGTFTSDVSK[αMeF]LDTK([AEEA-AEEA-γGlu-C20 diacid])RAQDFVRWLLR[Aib]K-NH2; N-terminus assumed), for which the EC50 was determined as 0.482 nM in assay [1] and 0.0649 nM in assay [2]. Besides, in assay [2], the “% Relative Potency Ratio” value is on record as 14.7.
For `CC(C)C[C@H](NC(=O)[C@H](Cc1c[nH]c2ccccc12)NC(=O)[C@H](CCCNC(=N)N)NC(=O)[C@@H](NC(=O)[C@H](Cc1ccccc1)NC(=O)[C@H](CC(=O)O)NC(=O)[C@H](CCC(N)=O)NC(=O)[C@H](C)NC(=O)[C@H](CCCNC(=N)N)NC(=O)[C@H](CCCCNC(=O)COCCOCCNC(=O)COCCOCCNC(=O)CC[C@H](NC(=O)CCCCCCCCCCCCCCCCC(=O)O)C(=O)O)NC(=O)[C@@H](NC(=O)[C@H](CC(=O)O)NC(=O)[C@H](CC(C)C)NC(=O)[C@](C)(Cc1ccccc1)NC(=O)[C@H](CCCCN)NC(=O)[C@H](CO)NC(=O)[C@@H](NC(=O)[C@H](CC(=O)O)NC(=O)[C@H](CO)NC(=O)[C@@H](NC(=O)[C@H](Cc1ccccc1)NC(=O)[C@@H](NC(=O)CNC(=O)[C@H](CCC(N)=O)NC(=O)C(C)(C)NC(=O)[C@@H](N)Cc1c[nH]cn1)[C@@H](C)O)[C@@H](C)O)C(C)C)[C@@H](C)O)C(C)C)C(=O)N[C@@H](CC(C)C)C(=O)N[C@@H](CCCNC(=N)N)C(=O)NC(C)(C)C(=O)N[C@@H](C)C(=O)O` [Peptide 497] (H-H[Aib]QGTFTSDVSK[αMeF]LDTK([AEEA-AEEA-γGlu-C18 diacid])RAQDFVRWLLR[Aib]A-OH) the same measures were 0.118 nM, 0.0374 nM and 6.3.
